Experimental data reported in ChEMBL document CHEMBL3414509, “A FRET-based assay for screening SIRT6 modulators” (Eur J Med Chem, 2015).
Calls of active or inactive are those of the source. No cut-off for these calls is given here. Peptide text beside a SMILES is read from it. * marks the point of attachment. X1 = CN(C)c1ccc(/N=N/c2ccc(C(=O)*)cc2)cc1; EDANS = O=S(=O)(O)c1cccc2c(NCCN*)cccc12; Myristoyl = CCCCCCCCCCCCCC(=O)*

Key:
[1] = biological target: NAD-dependent protein deacylase sirtuin-6 (Homo sapiens) (UniProt Q8N6T7); assay: Inhibition of SIRT6 (unknown origin) at 300 uM using (DABCYL)ISGASE(MyK)DIVHSE(EDANS)G substrate in presence of NAD followed by 1 hr incubation with trypsin by FRET assay
[2] = biological target: T1, NAD-dependent protein deacetylase sirtuin-1 (Homo sapiens) (UniProt Q96EB6); assay: Inhibition of SIRT1 (unknown origin) at 300 uM using (DABCYL)ISGASE(AcK)DIVHSE(EDANS)G substrate in presence of NAD followed by 1 hr incubation with trypsin by FRET assay
T1 sequence (whole entry): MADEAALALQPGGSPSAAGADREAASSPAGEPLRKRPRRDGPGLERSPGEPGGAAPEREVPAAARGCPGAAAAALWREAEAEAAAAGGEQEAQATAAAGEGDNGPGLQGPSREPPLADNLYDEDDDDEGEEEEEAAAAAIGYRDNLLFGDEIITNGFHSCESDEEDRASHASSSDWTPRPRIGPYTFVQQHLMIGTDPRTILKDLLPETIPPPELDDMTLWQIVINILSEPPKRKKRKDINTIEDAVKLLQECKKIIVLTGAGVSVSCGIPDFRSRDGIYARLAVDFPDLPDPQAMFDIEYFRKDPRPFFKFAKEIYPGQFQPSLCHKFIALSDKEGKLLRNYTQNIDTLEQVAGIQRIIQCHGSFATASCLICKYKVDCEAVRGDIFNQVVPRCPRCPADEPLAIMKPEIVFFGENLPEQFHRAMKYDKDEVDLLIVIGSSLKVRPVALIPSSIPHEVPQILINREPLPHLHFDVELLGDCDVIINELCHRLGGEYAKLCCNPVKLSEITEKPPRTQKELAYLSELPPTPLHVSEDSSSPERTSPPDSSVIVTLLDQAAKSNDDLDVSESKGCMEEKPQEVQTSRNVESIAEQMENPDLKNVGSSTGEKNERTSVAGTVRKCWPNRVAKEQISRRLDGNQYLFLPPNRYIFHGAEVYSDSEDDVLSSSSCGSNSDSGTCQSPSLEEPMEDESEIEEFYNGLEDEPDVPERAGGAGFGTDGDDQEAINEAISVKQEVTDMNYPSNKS

Trypsin (Homo sapiens) = Trypsin (Homo sapiens) (UniProt P07477+P07478+P35030); assay: Activity of trypsin (unknown origin) assessed as enzyme-mediated compound hydrolysis by measuring increase in fluorescence at 10 uM incubated for 1 hr at 37 degC relative to control; type: protein assay
[3] = biological target: NAD-dependent protein deacylase sirtuin-6 (Homo sapiens) (UniProt Q8N6T7); assay: Activity of SIRT6 (unknown origin) assessed as enzyme-mediated compound hydrolysis at 10 uM incubated for 60 mins in presence of NAD followed by 1 hr incubation with trypsin

Chain of NAD-dependent protein deacylase sirtuin-6 (Homo sapiens) (Q8N6T7 whole entry): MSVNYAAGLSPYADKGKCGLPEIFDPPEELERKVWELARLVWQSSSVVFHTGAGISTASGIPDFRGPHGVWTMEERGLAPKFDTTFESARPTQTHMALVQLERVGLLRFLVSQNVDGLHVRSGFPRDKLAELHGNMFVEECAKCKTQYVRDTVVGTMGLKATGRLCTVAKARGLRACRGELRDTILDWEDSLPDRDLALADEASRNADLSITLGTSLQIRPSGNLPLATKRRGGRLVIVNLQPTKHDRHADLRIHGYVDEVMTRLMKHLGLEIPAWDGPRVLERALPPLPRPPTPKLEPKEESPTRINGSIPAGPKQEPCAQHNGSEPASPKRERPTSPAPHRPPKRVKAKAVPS

SMILES	inhibition [1] [%]	further results
NC(=O)c1cccnc1	> 50	inhibition [2]: Active
CC[C@H](C)[C@H](NC(=O)c1ccc(/N=N/c2ccc(N(C)C)cc2)cc1)C(=O)N[C@@H](CO)C(=O)NCC(=O)N[C@@H](C)C(=O)N[C@@H](CO)C(=O)N[C@@H](CCC(=O)O)C(=O)N[C@@H](CCCCN)C(=O)N[C@@H](CC(=O)O)C(=O)N[C@H](C(=O)N[C@H](C(=O)N[C@@H](Cc1cnc[nH]1)C(=O)N[C@@H](CO)C(=O)N[C@@H](CCC(=O)NCCNc1cccc2c(S(=O)(=O)O)cccc12)C(=O)NCC(=O)O)C(C)C)[C@@H](C)CC (HELM PEPTIDE1{[CN(C)c1ccc(/N=N/c2ccc(C(=O)[*:2])cc2)cc1].I.S.G.A.S.E.K.D.I.V.H.S.E.G}|CHEM1{[O=S(=O)(O)c1cccc2c(NCCN[*:1])cccc12]}$PEPTIDE1,CHEM1,14:R3-1:R1$$$V2.0)	–	fold change (FC) (Trypsin (Homo sapiens)): 15
N#C/C(=C\c1ccc(-c2cc(Cl)ccc2Cl)o1)C(=O)Nc1cccc2ncccc12	< 50	–
CCCCCCCCCCCCCC(=O)NCCCC[C@H](NC(=O)[C@H](CCC(=O)O)NC(=O)[C@H](CO)NC(=O)[C@H](C)NC(=O)CNC(=O)[C@H](CO)NC(=O)[C@@H](NC(=O)c1ccc(/N=N/c2ccc(N(C)C)cc2)cc1)[C@@H](C)CC)C(=O)N[C@@H](CC(=O)O)C(=O)N[C@H](C(=O)N[C@H](C(=O)N[C@@H](Cc1cnc[nH]1)C(=O)N[C@@H](CO)C(=O)N[C@@H](CCC(=O)NCCNc1cccc2c(S(=O)(=O)O)cccc12)C(=O)NCC(=O)O)C(C)C)[C@@H](C)CC (X1-ISGASEK(Myristoyl)DIVHSE(EDANS)G-OH)	–	fold change (FC) [3]: 10
CC(NC(=O)c1ccccc1/N=C/c1c(O)ccc2ccccc12)c1ccccc1 (configuration not stated)	< 50	–
O=C1CCc2c(ccc3ccccc23)O1	< 50	–
